# Tests used:
# panel of 440 kinases = experiment: KINOMEscan Max, whole panel; format: binding, human; settings: 1 μM
# Protocol: (§1) Kinase panel profiling was performed at Ambit Kinomescan (http://www.ambitbio.com/technology/) using the “KINOMEscan™ Max” assay platform, a high-throughput method for screening small molecule compounds against large numbers of human kinases. KINOMEscan™ is based on a competition binding assay that quantitatively measures the ability of a compound to compete with an immobilized, active-site directed ligand. The assay is performed by combining three components: DNA-tagged kinase; immobilized ligand; and a test compound. The ability of the test compound to compete with the immobilized ligand is measured via quantitative PCR of the DNA tag. For a description of Ambit's assay protocol, see Fabian et al. A small molecule-kinase interaction map for clinical kinase inhibitors. Nat. Biotechnol. 23, 329-336 (2005).
# Selectivity of kinase inhibition is one of the key parameters in therapeutic use of this class of compounds. Off-target inhibition could be one of the major safety and toxicity issues in drug development and use of the compounds for treatment of various disease conditions. For this reason, development of selective kinase inhibitors is desired, to limit possible adverse effects. Therefore compounds disclosed in the application were tested on a panel of 440 kinases to determine specificity in PIM kinase inhibition. Table 5 provides selectivity data for representative compound N-(3-aminopropyl)-4,5,6,7-tetrabromo-1H-benzo[d]imidazol-2-amine (compound 11). As indicated in the Table 5 when tested at 1 μM concentration N-(3-aminopropyl)-4,5,6,7-tetrabromo-1H-benzo[d]imidazol-2-amine inhibited substrate biding of only 12 kinases (2% of the whole panel)>90%, whereas for over 93% of the tested kinases in the panel, substrate binding was basically not affected by compound 11. Pim kinases, but also HIPK, DYRK and CLK kinases and FTL3 mutants were identified as the primary targets for inhibition by compound 11 and selectivity for Pim kinases over other kinases was further confirmed in radiometric kinase assays.
# TBK1 = TBK1 (Homo sapiens, UniProt Q9UHD2); experiment: KINOMEscan Max; format: binding
# Protocol: as §1
# RIPK4 = biological target: T1, RIPK4 (Homo sapiens, UniProt P57078); experiment: KINOMEscan Max; format: binding
# T1 construct: DNA tag (qPCR read-out)
# Protocol: as §1
# FRK = biological target: T2, FRK (Homo sapiens, UniProt P42685); experiment: KINOMEscan Max; format: binding
# T2 construct: purchased Ambit Kinomescan (contract panel, KINOMEscan Max)
# Protocol: as §1
# PDGFRB = PDGFRB (Homo sapiens, UniProt P09619); experiment: KINOMEscan Max; format: binding
# Protocol: as §1
# PKNB(M.tuberculosis) = PKNB(M.tuberculosis) (Mycobacterium tuberculosis, UniProt P9WI81); experiment: KINOMEscan Max; format: binding
# Protocol: as §1
# IKK-beta = biological target: T3, IKK-beta (Homo sapiens, UniProt O14920); experiment: KINOMEscan Max; format: binding
# T3 construct: DNA tag (qPCR read-out)
# Protocol: as §1
# CTK = CTK (Homo sapiens, UniProt P42679); experiment: KINOMEscan Max; format: binding
# Protocol: as §1
# CLK3 = biological target: T4, CLK3 (Homo sapiens, UniProt P49761); experiment: KINOMEscan Max; format: binding
# T4 construct: purchased Ambit (KINOMEscan Max service)
# Protocol: as §1
# MAP4K4 = biological target: T5, MAP4K4 (Homo sapiens, UniProt O95819); experiment: KINOMEscan Max; format: binding
# T5 construct: purchased Ambit Kinomescan (contract screening)
# Protocol: as §1
# [1] = biological target: T6, JAK1(JH2domain-pseudokinase) (Homo sapiens, UniProt P23458); experiment: KINOMEscan Max; format: binding; settings: 1 μM
# T6 construct: JAK1(JH2domain-pseudokinase)
# Protocol: as §1
# MARK1 = biological target: T7, MARK1 (Homo sapiens, UniProt Q9P0L2); experiment: KINOMEscan Max; format: binding
# T7 construct: purchased Ambit Kinomescan (contract panel)
# Protocol: as §1
# SBK1 = biological target: T8, SBK1 (Homo sapiens, UniProt Q52WX2); experiment: KINOMEscan Max; format: binding
# T8 construct: purchased Ambit (KINOMEscan Max service)
# Protocol: as §1
# MYLK4 = biological target: T9, MYLK4 (Homo sapiens, UniProt Q86YV6); experiment: KINOMEscan Max; format: binding
# T9 construct: DNA tag (qPCR read-out); purchased Ambit Kinomescan
# Protocol: as §1
# STK39 = biological target: T10, STK39 (Homo sapiens, UniProt Q9UEW8); experiment: KINOMEscan Max; format: binding
# T10 construct: DNA tag (qPCR read-out)
# Protocol: as §1
# MAP4K5 = MAP4K5 (Homo sapiens, UniProt Q9Y4K4); experiment: KINOMEscan Max; format: binding
# Protocol: as §1
# [2] = biological target: T11, RPS6KA4(Kin.Dom.1-N-terminal) (Homo sapiens, UniProt O75676); experiment: KINOMEscan Max; format: binding
# T11 construct: RPS6KA4(Kin.Dom.1-N-terminal); DNA tag (qPCR read-out)
# Protocol: as §1
# PKAC-alpha = biological target: T12, PKAC-alpha (Homo sapiens, UniProt P17612); experiment: KINOMEscan Max; format: binding
# T12 construct: purchased Ambit (KINOMEscan Max service)
# Protocol: as §1
# LOK = biological target: T13, LOK (Homo sapiens, UniProt O94804); experiment: KINOMEscan Max; format: binding; settings: 1 μM
# T13 construct: purchased Ambit Kinomescan (contract panel)
# Protocol: as §1
# PKN2 = biological target: T14, PKN2 (Homo sapiens, UniProt Q16513); experiment: KINOMEscan Max; format: binding
# T14 construct: purchased Ambit (KINOMEscan Max service)
# Protocol: as §1
# CAMK2D = biological target: T15, CAMK2D (Homo sapiens, UniProt Q13557); experiment: KINOMEscan Max; format: binding
# T15 construct: DNA tag (qPCR label); purchased Ambit Kinomescan (contract screening)
# Protocol: as §1
# CSNK1D = biological target: T16, CSNK1D (Homo sapiens, UniProt P48730); experiment: KINOMEscan Max; format: binding
# T16 construct: DNA tag (qPCR read-out); purchased Ambit Kinomescan
# Protocol: as §1
# VEGFR2 = biological target: T17, VEGFR2 (Homo sapiens, UniProt P35968); experiment: KINOMEscan Max; format: binding
# T17 construct: purchased Ambit Kinomescan (contract screening)
# Protocol: as §1
# TESK1 = TESK1 (Homo sapiens, UniProt Q15569); experiment: KINOMEscan Max; format: binding
# Protocol: as §1
# HIPK4 = biological target: T18, HIPK4 (Homo sapiens, UniProt Q8NE63); experiment: KINOMEscan Max; format: binding
# T18 construct: DNA tag (qPCR read-out)
# Protocol: as §1
# [3] = system: EGFR(L747-S572del. P573S); experiment: KINOMEscan Max; format: binding, human; settings: 1 μM
# Protocol: as §1
# EGFR(S572-I759del) = experiment: KINOMEscan Max; format: binding, human; settings: 1 μM
# Protocol: as §1
# ISR1 = experiment: KINOMEscan Max; format: binding, human; settings: 1 μM
# Protocol: as §1
# FLT3(ITD) = experiment: KINOMEscan Max; format: binding, human; settings: 1 μM
# Protocol: as §1
# T17 sequence (P35968 20-1356): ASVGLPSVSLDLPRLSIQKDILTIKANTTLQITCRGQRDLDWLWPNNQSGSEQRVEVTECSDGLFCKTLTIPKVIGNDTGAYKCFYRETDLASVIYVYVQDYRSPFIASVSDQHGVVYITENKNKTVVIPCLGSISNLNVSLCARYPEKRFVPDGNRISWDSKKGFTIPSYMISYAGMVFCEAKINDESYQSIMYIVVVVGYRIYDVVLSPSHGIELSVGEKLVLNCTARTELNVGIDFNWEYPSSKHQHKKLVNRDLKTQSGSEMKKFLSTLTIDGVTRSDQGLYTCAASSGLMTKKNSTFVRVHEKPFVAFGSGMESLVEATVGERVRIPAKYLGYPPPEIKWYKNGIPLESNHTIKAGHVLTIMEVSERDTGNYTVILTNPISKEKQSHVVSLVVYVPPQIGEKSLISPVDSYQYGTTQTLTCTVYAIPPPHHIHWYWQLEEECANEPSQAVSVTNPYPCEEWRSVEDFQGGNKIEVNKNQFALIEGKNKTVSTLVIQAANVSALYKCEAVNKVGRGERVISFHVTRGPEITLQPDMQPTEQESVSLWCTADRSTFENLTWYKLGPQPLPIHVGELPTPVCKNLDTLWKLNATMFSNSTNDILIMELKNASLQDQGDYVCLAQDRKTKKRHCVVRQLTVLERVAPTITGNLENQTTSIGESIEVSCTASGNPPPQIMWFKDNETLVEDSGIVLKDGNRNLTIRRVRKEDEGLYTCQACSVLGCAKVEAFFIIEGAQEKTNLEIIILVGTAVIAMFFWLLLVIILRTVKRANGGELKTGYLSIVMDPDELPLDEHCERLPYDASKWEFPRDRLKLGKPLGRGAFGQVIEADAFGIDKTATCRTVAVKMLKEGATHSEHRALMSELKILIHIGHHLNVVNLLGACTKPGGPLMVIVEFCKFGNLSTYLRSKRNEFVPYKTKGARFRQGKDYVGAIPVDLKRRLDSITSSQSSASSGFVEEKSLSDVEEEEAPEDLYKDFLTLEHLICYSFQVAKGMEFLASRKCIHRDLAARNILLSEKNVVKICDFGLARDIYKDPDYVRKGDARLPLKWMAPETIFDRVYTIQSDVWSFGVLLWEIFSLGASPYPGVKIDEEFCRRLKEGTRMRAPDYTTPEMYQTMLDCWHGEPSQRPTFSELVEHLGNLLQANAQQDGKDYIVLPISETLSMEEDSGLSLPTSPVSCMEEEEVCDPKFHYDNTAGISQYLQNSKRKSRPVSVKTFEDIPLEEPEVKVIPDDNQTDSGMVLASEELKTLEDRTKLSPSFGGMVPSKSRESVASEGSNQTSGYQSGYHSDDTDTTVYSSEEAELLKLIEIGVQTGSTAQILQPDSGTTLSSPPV
# T14 sequence (Q16513 whole entry): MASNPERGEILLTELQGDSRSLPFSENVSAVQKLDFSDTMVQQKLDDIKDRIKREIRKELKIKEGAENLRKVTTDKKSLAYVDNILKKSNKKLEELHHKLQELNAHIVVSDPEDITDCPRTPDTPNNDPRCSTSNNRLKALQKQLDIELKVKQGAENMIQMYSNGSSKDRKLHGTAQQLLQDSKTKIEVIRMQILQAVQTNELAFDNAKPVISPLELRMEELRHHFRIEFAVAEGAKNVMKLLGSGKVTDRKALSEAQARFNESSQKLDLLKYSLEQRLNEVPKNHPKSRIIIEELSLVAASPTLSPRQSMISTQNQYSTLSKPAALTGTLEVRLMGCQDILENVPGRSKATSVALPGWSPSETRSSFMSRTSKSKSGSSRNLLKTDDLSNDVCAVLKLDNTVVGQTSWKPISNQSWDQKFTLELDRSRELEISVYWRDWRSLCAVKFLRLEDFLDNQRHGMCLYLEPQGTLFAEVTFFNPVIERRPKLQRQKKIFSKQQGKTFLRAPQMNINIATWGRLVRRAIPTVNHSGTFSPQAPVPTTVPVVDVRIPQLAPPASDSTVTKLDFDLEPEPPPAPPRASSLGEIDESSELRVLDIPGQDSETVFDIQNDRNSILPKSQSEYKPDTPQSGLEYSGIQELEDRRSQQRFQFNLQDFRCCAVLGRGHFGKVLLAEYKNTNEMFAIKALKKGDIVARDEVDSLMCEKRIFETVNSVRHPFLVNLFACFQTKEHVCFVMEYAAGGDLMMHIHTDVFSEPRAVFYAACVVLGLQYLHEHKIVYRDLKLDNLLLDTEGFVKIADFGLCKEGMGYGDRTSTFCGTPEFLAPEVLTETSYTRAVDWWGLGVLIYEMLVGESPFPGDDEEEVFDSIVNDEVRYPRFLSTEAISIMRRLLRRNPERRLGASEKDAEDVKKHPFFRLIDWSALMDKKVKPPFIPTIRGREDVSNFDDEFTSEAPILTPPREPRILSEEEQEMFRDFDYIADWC
# T4 sequence (P49761 whole entry): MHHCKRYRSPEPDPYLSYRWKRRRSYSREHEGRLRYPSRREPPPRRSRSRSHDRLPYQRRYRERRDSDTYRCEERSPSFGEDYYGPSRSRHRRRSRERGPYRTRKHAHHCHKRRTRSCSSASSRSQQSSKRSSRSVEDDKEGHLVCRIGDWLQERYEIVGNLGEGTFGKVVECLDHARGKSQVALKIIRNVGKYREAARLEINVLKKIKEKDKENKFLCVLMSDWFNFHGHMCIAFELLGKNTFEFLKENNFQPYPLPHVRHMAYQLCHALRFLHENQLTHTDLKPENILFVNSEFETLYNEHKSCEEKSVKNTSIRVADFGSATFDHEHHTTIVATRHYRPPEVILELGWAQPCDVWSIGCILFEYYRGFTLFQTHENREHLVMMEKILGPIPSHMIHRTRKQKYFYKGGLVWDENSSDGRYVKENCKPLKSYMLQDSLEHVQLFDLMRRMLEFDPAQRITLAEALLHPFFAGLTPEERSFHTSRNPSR
# T8 sequence (Q52WX2 whole entry): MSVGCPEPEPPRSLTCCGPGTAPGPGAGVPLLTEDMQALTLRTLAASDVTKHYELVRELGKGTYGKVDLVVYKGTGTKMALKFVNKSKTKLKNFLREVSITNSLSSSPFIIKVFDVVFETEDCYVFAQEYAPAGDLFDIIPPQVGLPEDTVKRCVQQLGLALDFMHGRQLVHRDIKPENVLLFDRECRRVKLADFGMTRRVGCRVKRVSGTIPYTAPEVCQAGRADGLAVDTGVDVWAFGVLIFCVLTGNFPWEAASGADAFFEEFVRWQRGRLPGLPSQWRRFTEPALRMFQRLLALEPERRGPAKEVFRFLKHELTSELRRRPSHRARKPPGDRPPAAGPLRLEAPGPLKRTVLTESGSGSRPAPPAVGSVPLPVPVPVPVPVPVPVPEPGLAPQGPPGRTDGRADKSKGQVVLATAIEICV
# T18 sequence (Q8NE63 whole entry): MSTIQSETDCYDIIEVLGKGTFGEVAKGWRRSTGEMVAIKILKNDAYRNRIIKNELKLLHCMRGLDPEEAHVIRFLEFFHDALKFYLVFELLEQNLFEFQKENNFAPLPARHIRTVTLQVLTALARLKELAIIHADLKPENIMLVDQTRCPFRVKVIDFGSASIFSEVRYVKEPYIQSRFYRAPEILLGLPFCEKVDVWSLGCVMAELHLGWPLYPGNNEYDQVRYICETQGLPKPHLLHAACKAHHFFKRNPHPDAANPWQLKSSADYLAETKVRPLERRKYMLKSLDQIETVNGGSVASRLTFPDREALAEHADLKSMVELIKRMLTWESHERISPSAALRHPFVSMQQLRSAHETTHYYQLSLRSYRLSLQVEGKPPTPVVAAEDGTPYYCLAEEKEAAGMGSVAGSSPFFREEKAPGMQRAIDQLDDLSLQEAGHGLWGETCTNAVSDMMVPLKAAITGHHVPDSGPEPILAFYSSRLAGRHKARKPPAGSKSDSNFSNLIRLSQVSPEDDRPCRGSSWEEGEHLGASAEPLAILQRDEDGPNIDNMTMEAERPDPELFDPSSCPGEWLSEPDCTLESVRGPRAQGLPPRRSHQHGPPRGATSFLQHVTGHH
# T2 sequence (P42685 whole entry): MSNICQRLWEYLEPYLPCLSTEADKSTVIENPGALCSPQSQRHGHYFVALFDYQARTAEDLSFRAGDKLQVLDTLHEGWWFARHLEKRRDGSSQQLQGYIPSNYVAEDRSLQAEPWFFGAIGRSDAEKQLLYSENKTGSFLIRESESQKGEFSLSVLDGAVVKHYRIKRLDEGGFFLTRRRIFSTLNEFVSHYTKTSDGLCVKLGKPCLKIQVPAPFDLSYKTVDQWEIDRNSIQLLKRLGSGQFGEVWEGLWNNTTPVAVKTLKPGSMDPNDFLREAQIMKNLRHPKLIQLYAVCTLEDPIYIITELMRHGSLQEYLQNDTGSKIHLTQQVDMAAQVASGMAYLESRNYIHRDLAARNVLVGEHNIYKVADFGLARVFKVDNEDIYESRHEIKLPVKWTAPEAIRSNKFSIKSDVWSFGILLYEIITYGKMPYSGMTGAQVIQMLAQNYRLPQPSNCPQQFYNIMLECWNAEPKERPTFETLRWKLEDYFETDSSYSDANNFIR
# T15 sequence (Q13557 whole entry): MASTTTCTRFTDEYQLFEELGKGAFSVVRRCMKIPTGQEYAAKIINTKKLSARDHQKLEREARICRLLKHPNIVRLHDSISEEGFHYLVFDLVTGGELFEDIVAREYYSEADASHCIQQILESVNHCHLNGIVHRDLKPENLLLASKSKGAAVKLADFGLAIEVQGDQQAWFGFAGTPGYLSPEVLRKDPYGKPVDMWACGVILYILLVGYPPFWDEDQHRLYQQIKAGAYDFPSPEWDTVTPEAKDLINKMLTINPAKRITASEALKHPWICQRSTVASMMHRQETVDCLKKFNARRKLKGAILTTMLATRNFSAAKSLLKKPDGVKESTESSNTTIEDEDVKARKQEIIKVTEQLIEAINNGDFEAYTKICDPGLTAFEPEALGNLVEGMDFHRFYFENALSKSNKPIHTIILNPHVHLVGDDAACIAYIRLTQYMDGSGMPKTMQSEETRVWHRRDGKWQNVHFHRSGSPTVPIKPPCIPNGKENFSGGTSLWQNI
smiles,measurement,setting,value
"NCCCNc1nc2c(Br)c(Br)c(Br)c(Br)c2[nH]1 [Compound 11, N-(3-aminopropyl)-4,5,6,7-tetrabromo-1H-benzo[d]imidazol-2-amine]",number of kinases with substrate binding inhibited >90%,panel of 440 kinases,12
same,share of tested kinases with substrate binding basically not affected,panel of 440 kinases,over 93%
same,share of the whole panel with substrate binding inhibited >90%,panel of 440 kinases,2%
same,remaining binding at 1 µM,TBK1,76%
same,remaining binding at 1 µM,RIPK4,100%
same,remaining binding at 1 µM,FRK,100%
same,remaining binding at 1 µM,PDGFRB,80%
same,remaining binding at 1 µM,PKNB(M.tuberculosis),91%
same,remaining binding at 1 µM,IKK-beta,56%
same,remaining binding at 1 µM,CTK,74%
same,remaining binding at 1 µM,CLK3,70%
same,remaining binding at 1 µM,MAP4K4,98%
same,% binding,[1],93%
same,remaining binding at 1 µM,MARK1,100%
same,remaining binding at 1 µM,SBK1,59%
same,remaining binding at 1 µM,MYLK4,24%
same,remaining binding at 1 µM,STK39,100%
same,remaining binding at 1 µM,MAP4K5,98%
same,remaining binding at 1 µM,[2],55%
same,remaining binding at 1 µM,PKAC-alpha,68%
same,% binding,LOK,100%
same,remaining binding at 1 µM,PKN2,80%
same,remaining binding at 1 µM,CAMK2D,100%
same,remaining binding at 1 µM,CSNK1D,17%
same,remaining binding at 1 µM,VEGFR2,96%
same,remaining binding at 1 µM,TESK1,93%
same,remaining binding at 1 µM,HIPK4,53%
same,% binding,[3],86%
same,% binding,EGFR(S572-I759del),99%
same,% binding,ISR1,81%
same,% binding,FLT3(ITD),35%

# From patent US20110230481A2, “DERIVATIVES OF TETRABROMOBENZIMIDAZOLE, A PROCESS FOR THE PREPARATION THEREOF, A PHARMACEUTICAL COMPOSITION COMPRISING THE SAME, A METHOD OF USING THE SAME, A METHOD FOR MODULATING OR REGULATING SERINE/THREONINE KINASES, AND SERINE/THREONINE KINASES MODULATING AGENT” (SELVITA S.A., priority 2009, published 2011)
